Assay results from US10221173B2, “Chemical compounds” (AstraZeneca AB, priority 2017, dated 2019).
≈ marks a conversion by molar mass, not a printed value.

Columns and labels:
[1] = biological target: recombinant human Estrogen Receptor alpha ligand binding domain (ER alpha-LBD (GST)) (Homo sapiens (Human), UniProt P03372); assay: ERα binding assay (LanthaScreen TR-FRET competition)
Protocol: The ability of compounds to bind to isolated Estrogen Receptor Alpha Ligand binding domain (ER alpha—LBD (GST)) was assessed in competition assays using a LanthaScreen Time-Resolved Fluorescence Resonance Energy Transfer (TR-FRET) detection end-point. For the LanthaScreen TR-FRET endpoint, a suitable fluorophore (Fluormone ES2, ThermoFisher, Product code P2645) and recombinant human Estrogen Receptor alpha ligand binding domain, residues 307-554 (expressed and purified in-house) were used to measure compound binding. The assay principle is that ER alpha-LBD (GST) is added to a fluorescent ligand to form a receptor/fluorophore complex. A terbium-labelled anti-GST antibody (Product code PV3551) is used to indirectly label the receptor by binding to its GST tag, and competitive binding is detected by a test compound's ability to displace the fluorescent ligand, resulting in a loss of TR-FRET signal between the Tb-anti-GST antibody and the tracer. The assay was performed as follows with all reagent additions carried out using the Beckman Coulter BioRAPTR FRD microfluidic workstation: • 1. Acoustic dispense 120 nL of the test compound into a black low volume 384 well assay plates. • 2. Prepare 1× ER alpha-LBD/Tb-antiGST Ab in ES2 screening buffer and incubate for 15 minutes. • 3. […] Cover the assay plate to protect the reagents from light and evaporation, and incubate at room temperature for 4 hours. • 5. Excite at 337 nm and measure the fluorescent emission signal of each well at 490 nm and 520 nm using the BMG PheraSTAR.
TR-FRET dose response data obtained with each compound was exported into a suitable software package (such as Origin or Genedata) to perform curve fitting analysis. Competitive ER alpha binding was expressed as an IC50 value.

[2] = biological target: Estrogen Receptor (ERα) in MCF-7 cells (Homo sapiens (Human), UniProt P03372); assay: MCF-7 ER down-regulation assay (immuno-fluorescence); assay type: cell-based
Chain of Estrogen Receptor (ERα) in MCF-7 cells (P03372 whole entry): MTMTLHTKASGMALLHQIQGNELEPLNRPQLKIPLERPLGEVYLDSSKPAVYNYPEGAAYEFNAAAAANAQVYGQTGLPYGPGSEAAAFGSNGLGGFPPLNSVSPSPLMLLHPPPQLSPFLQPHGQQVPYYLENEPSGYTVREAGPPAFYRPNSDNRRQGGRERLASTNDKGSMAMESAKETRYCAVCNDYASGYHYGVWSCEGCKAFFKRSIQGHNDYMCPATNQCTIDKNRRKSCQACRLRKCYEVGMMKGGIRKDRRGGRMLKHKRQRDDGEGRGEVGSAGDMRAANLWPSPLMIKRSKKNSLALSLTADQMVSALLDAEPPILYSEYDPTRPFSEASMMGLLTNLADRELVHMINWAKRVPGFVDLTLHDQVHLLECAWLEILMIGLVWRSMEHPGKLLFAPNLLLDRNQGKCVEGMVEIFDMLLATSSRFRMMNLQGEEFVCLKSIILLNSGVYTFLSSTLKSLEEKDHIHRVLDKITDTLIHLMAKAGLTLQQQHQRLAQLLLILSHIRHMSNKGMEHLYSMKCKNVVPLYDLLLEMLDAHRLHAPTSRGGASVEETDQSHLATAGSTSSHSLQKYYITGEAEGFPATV

[3] = Log D (shake flask, 1-octanol/aqueous buffer); assay type: physicochemical
[4] = Thermodynamic solubility (shake-flask); assay type: physicochemical; conditions: phosphate buffer pH 7.4, 24 hours
Protocol: The thermodynamic solubility of a research compound is measured under standard conditions. It is a shake-flask approach that uses 10 mM DMSO solutions which are supplied from the Compound Managements liquid store and is a high throughput method. The dried compounds are equilibrated in an aqueous phosphate buffer (pH 7.4) for 24 hours at 25° C., the portion with the dissolved compound is then separated from the remains. The solutions are analyzed and quantified using UPLC/MS/MS, QC-samples are incorporated in each assay-run to ensure the quality of the assay.

[5] = Human plasma protein binding (equilibrium dialysis); assay type: in vitro ADME
[6] = 1-octanol/aqueous buffer, pH 7.4, pH 7.4
[7] = aqueous phosphate buffer, 25 °C, pH 7.4, aqueous buffer, thermodynamic from solid

Chain of recombinant human Estrogen Receptor alpha ligand binding domain (ER alpha-LBD (GST)) (P03372 307-554): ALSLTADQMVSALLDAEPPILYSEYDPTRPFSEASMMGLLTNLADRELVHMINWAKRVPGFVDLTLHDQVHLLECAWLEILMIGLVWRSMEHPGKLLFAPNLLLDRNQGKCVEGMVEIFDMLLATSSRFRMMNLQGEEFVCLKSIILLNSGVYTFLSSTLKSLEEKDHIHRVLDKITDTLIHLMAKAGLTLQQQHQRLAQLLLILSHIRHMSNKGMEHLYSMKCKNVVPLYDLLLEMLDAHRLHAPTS

| Structure (SMILES) | IC50 [1] [nM] | IC50 [2] [nM] | logD [3, 6] | solubility at 24 h [4, 7] [µM] | Human plasma protein binding (% free) [5] [% free] | LogD pH 7.4 ([3]; pH 7.4) | solubility at 24 h ([4]; 25° C.) [µM] | % downregulation (in brackets) ([2]; maximum downregulation) [%] | logD ([3]; pH 7.4) | solubility at 24 h ([4]; aqueous buffer, thermodynamic from solid, 25° C.) [µM] |
| --- | --- | --- | --- | --- | --- | --- | --- | --- | --- | --- |
| CC(CN1[C@H](c2c(Cl)ccc(OCCNCCCF)c2Cl)c2[nH]c3ccc(F)cc3c2C[C@H]1C)C(=O)O (single isomer, unassigned) [Example 129] | 8.9 | 2.6 | 1.5 | 953 (≈ 528 µg/mL) | 23 | – | – | – | – | – |
| CC(CN1[C@H](c2c(Cl)ccc(OCCNCCCF)c2Cl)c2[nH]c3ccc(F)cc3c2C[C@H]1C)C(=O)O (single isomer, unassigned) [Example 130] | 1.8 | 1.3 | – | – | 7.8 | 1.5 | 854 (≈ 474 µg/mL) | – | – | – |
| COc1cc(F)c(OCCNCCCF)cc1[C@@H]1c2[nH]c3ccccc3c2C[C@@H](C)N1CC(F)(F)F [Example 28, 3-fluoro-N-(2-(2-fluoro-4-methoxy-5-((1R,3R)-3-methyl-2-(2,2,2-trifluoroethyl)-2,3,4,9-tetrahydro-1H-pyrido[3,4-b]indol-1-yl)phenoxy)ethyl)propan-1-amine] | 2.8 | 0.8 | 3.8 | 40 (≈ 20.5 µg/mL) | 1.2 | – | – | – | – | – |
| Cc1c(OCCNCCCF)cncc1[C@@H]1c2[nH]c3ccccc3c2C[C@@H](C)N1CC(F)(F)F [Example 38, 3-fluoro-N-(2-((4-methyl-5-((1R,3R)-3-methyl-2-(2,2,2-trifluoroethyl)-2,3,4,9-tetrahydro-1H-pyrido[3,4-b]indol-1-yl)pyridin-3-yl)oxy)ethyl)propan-1-amine] | – | 0.19 | – | – | 0.91 | – | – | – | – | – |
| COc1ccc(OC[C@H](C)NCCCF)cc1[C@@H]1c2[nH]c3ccccc3c2C[C@@H](C)N1CC(F)(F)CO [Example 49, 2,2-difluoro-3-((1R,3R)-1-(5-((S)-2-((3-fluoropropyl)amino)propoxy)-2-methoxyphenyl)-3-methyl-1,3,4,9-tetrahydro-2H-pyrido[3,4-b]indol-2-yl)propan-1-ol] | 1.2 | 0.15 | 2.8 | 335 (≈ 174 µg/mL) | – | – | – | – | – | – |
| COc1ccc(OC[C@@H](C)NCCCF)cc1[C@@H]1c2[nH]c3ccccc3c2C[C@@H](C)N1CC(F)(F)CO [Example 50, 2,2-difIuoro-3-((1R,3R)-1-(5-((S)-2-((3-fluoropropyl)amino)propoxy)-2-methoxyphenyl)-3-methyl-1,3,4,9-tetrahydro-2H-pyrido[3,4-b]indol-2-yl)propan-1-ol] | 1 | 0.81 | 2.8 | 461 (≈ 240 µg/mL) | 7.1 | – | – | 81 | – | – |
| COc1ccc(OCCNCCCF)nc1[C@@H]1c2[nH]c3ccccc3c2C[C@@H](C)N1CC(F)(F)F [Example 56, 3-fluoro-N-(2-((5-methoxy-6-((1S,3R)-3-methyl-2-(2,2,2-trifluoroethyl)-2,3,4,9-tetrahydro-1H-pyrido[3,4-b]indol-1-yl)pyridin-2-yl)oxy)ethyl)propan-1-amine] | 39 | 14 | 2.7 | 445 (≈ 220 µg/mL) | 4.6 | – | – | – | – | – |
| C[C@@H]1Cc2c([nH]c3ccccc23)[C@@H](c2cccc(OCCNCCCF)c2C#N)N1CC(F)(F)F [Example 69, 2-(2-((3-fluoropropyl)amino)ethoxy)-6-((1R,3R)-3-methyl-2-(2,2,2-trifluoroethyl)-2,3,4,9-tetrahydro-1H-pyrido[3,4-b]indol-1-yl)benzonitrile] | 1.4 | 1.5 | 3.6 | 150 (≈ 73.3 µg/mL) | 2.2 | – | – | – | – | – |
| COc1ccc(OCCNCCC(F)(F)F)cc1[C@@H]1c2[nH]c3ccccc3c2C[C@@H](C)N1CC(F)(F)F [Example 72, 3,3,3-trifluoro-N-(2-(4-methoxy-3-((1R,3R)-3-methyl-2-(2,2,2-trifluoroethyl)-2,3,4,9-tetrahydro-1H-pyrido[3,4-b]indol-1-yl)phenoxy)ethyl)propan-1-amine] | 1.4 | 0.49 | 5.2 | < 0.2 | <0.1 | – | – | – | – | – |
| C[C@@H]1Cc2c([nH]c3ccccc23)[C@@H](c2c(Cl)ccc(OCCNCCCF)c2F)N1CC(F)(F)F [Example 78, N-(2-(4-chloro-2-fluoro-3-((1R,3R)-3-methyl-2-(2,2,2-trifluoroethyl)-2,3,4,9-tetrahydro-1H-pyrido[3,4-b]indol-1-yl)phenoxy)ethyl)-3-fluoropropan-1-amine] | 1.3 | 0.12 | 4 | 26 (≈ 13.4 µg/mL) | 0.21 | – | – | – | – | – |
| COc1ccc(OCCNCCCF)c(F)c1[C@@H]1c2[nH]c3ccccc3c2C[C@@H](C)N1CC(F)F [Example 82, N-(2-(3-((1R,3R)-2-(2,2-difluoroethyl)-3-methyl-2,3,4,9-tetrahydro-1H-pyrido[3,4-b]indol-1-yl)-2-fluoro-4-methoxyphenoxy)ethyl)-3-fluoropropan-1-amine] | 0.8 | 0.042 | – | – | 1.9 | – | – | – | 2.9 | 475 (≈ 234 µg/mL) |
| C[C@@H]1Cc2c([nH]c3ccccc23)[C@@H](c2cc(OCCNCCCF)ncn2)N1CC(F)(F)F [Example 113, 3-fluoro-N-(2-((6-((1S,3R)-3-methyl-2-(2,2,2-trifluoroethyl)-2,3,4,9-tetrahydro-1H-pyrido[3,4-b]indol-1-yl)pyrimidin-4-yl)oxy)ethyl)propan-1-amine] | 17 | > 300 | 4.1 | < 1.6 | – | – | – | – | – | – |
| C[C@@H]1Cc2c([nH]c3ccccc23)[C@@H](c2c(F)ccc(OCCNCCCF)c2Cl)N1CC(C)(C)C(=O)O [Example 131, 3-((1R,3R)-1-(2-chloro-6-fluoro-3-(2-((3-fluoropropyl)amino)ethoxy)phenyl)-3-methyl-1,3,4,9-tetrahydro-2H-pyrido[3,4-b]indol-2-yl)-2,2-dimethylpropanoic acid] | – | – | 1.2 | > 1000 | 32 | – | – | – | – | – |
| Cc1c(N(C)CCN(C)CCCF)ccc(F)c1[C@@H]1c2[nH]c3ccccc3c2C[C@@H](C)N1C[C@H](C)C(=O)O [Example 147, (S)-3-((1R,3R)-1-(6-fluoro-3-((2-((3-fluoropropyl)(methyl)amino)ethyl)(methyl)amino)-2-methylphenyl)-3-methyl-1,3,4,9-tetrahydro-2H-pyrido[3,4-b]indol-2-yl)-2-methylpropanoic acid] | 51 | – | – | – | 19 | – | – | – | – | – |
| Cc1c(OCCNCCC(F)F)ccc(F)c1[C@@H]1c2[nH]c3ccc(F)cc3c2C[C@@H](C)N1C[C@@H](C)C(=O)O [Example 162, (R)-3-((1R,3R)-1-(3-(2-((3,3-difluoropropyl)amino)ethoxy)-6-fluoro-2-methylphenyl)-6-fluoro-3-methyl-1,3,4,9-tetrahydro-2H-pyrido[3,4-b]indol-2-yl)-2-methylpropanoic acid] | – | – | 1.8 | > 1000 | 27 | – | – | – | – | – |
